PMC10855902 (International Journal of Molecular Sciences, 2024)
Read-outs that look alike come from different tables or passages of the source. Ends that are not written are not given here. Peptide text beside a SMILES is read from it.

Assays:
[1] = target: Recombinant human EGFR protein (Active) (ab155639) (Homo sapiens, UniProt P00533); test: Microscale thermophoresis (MST) binding to EGFR
Procedure: It is known from the literature data that the dissociation constant of this binding interaction varies from 0.2 to 8 nM [102]. […] It is recommended that the concentration of the ligand should be at least 20× higher than the expected dissociation constant. In the experiments, the final labeled EGFR concentration was 25 nM.
MST analysis was performed using a Monolith NT.115 device, excitation color—Nano-RED, excitation power—100%, medium MST power.
Recombinant human EGFR protein (Active) (ab155639) was reconstituted with 500 μL of 0.45 μm filtered distilled water. Then, 100 nM solution of EGFR was prepared by mixing 3.6 μL of protein with 96.4 μL PBS-T (PBS with 0.05% Tween20). RED-tris-NTA 2nd Generation (5 μM) was obtained by dissolving […] of dye in 50 μL PBS-T. A solution of dye in PBS-T (50 nM) was prepared by mixing 1 μL of dye with 99 μL PBS-T. A solution of the protein (95 μL) was mixed with the solution of dye (95 μL) and incubated at room temperature for 30 min. The sample was then centrifuged for 10 min at 4 °C. The final labeled protein concentration in the assay was 25 nM.
Then, 20 μL of the ligand was transferred to PCR tube 1. Subsequently, 10 μL of the solution was transferred to PCR tube 2 and mixed by pipetting; 10 μL of the solution from PCR tube 2 was transferred to PCR tube 3 and mixed by pipetting; this procedure was repeated for PCR tubes 4–16. From PCR tube 16, 10 μL of the solution was discarded. Finally, 10 μL of labeled EGFR was added to each PCR tube and mixed by pipetting. The samples were incubated for 30 min at room temperature prior to MST assays. Analyses were performed using NanoTemper Technologies (München, Germany).

[2] = system: Primary Dermal Fibroblasts; test: Live/dead test (proliferation and cytotoxicity); format: cell-based; conditions: 100 ng/mL; for percentage of live cells (in words) / live cells: live/dead assay
Procedure: In the next stage of our research, the scope of biological tests was expanded to assess the safety of the found EGF fragments. Fragments 10–22, 13–19, 22–28, 26–34, 10–15, and 10–15a were selected for further study in a live/dead assay (Figure 7, Figure 8 and Figure 9).
Primary Dermal Fibroblast (ATCC, Manassas, USA) was grown in Fibroblast Basal Media supplemented with Fibroblast Growth Kit components (ATCC, Manassas, VA, USA). The cells were cultured under standard conditions (37 °C, humidified atmosphere of 5% CO2 in air). The medium was replaced every 2–3 days (75% confluence). Cells between the third and fifth passages were used in the experiment.
To evaluate proliferation and cytotoxicity, a “live/dead” test (Viability/Cytotoxicity Kit, Molecular Probes) was used. Cells were seeded at 6 × 10^4 cells/mL/well/sample in 2 mL of Fibroblast Basal Media supplemented with Fibroblast Growth Kit components (ATCC, Manassas, VA, USA). After 24 h, the medium was completely replaced. Cells in the positive control and negative control were cultured in medium containing FGF. In the remaining samples, media without FGF and with the addition of heat-inactivated serum were used. […] During the experiment, half of the medium was changed every 2 days. […] After that time, a mixture of two fluorescent dyes was used: Calcein-AM for the staining of living cells and ethidium bromide for the labeling of dead cells.
The samples were examined using an Olympus GX 71 fluorescence microscope equipped with a digital camera (DP70) (Olympus, Evident, Tokyo, Japan). The results were submitted to one-way ANOVA analysis.

[3] = system: anti-EGF rabbit polyclonal antibodies (Abcam 9695); test: Dot blot of cellulose-immobilized EGF decapeptides with anti-EGF polyclonal antibodies; format: binding;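 for Intensity (Staining Value): higher gray value means stronger antibody binding with above 120 very strong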
Procedure: Dot blot reactions were performed using primary anti-EGF rabbit polyclonal antibodies (Abcam 9695) (Cambridge, UK) and secondary goat anti-rabbit antibodies conjugated with HRP (Abcam 205718). The procedure for using the dot blot method to analyze peptides immobilized on a cellulose matrix through a triazine linker was optimized in a previous study by the authors and ensures the elimination of non-specific impacts.
The solution was then removed, and the membranes were treated overnight at room temperature with blocking buffer (3% BSA in PBS, 40 mL, pH 7.4). The cellulose sheets were then washed with PBS buffer (40 mL, 5 min, pH 7.4). […] The membranes were then washed with Tween-80 solution in PBS (0.4%, 40 mL, 2 × 5 min) and PBS (40 mL, 5 min). Goat Anti-Rabbit IgG antibodies were conjugated with HRP (Abcam 205718, 20 μL) diluted 1:1000 in 1% BSA in PBS (20 mL, pH 7.4) and then incubated with cellulose sheets for 30 min at room temperature. The membranes were then washed with Tween-80 solution in PBS (0.4%, 40 mL, 2 × 5 min) and PBS (40 mL, 5 min). Visualization of the reactions was performed using 4-chloro-1-naphtol (Sigma–Aldrich). The cellulose sheets were placed into 0.15 mg/mL solution of 4-chloro-1-naphtol in MeOH:PBS (1:5, 15 mL) with the addition of 7.5 μL of H2O2; reaction time was 30 min. The membranes were washed with distilled water, air-dried, and scanned. In places where immunological complexes developed, blue precipitate was observed. The applied dot blot test procedure ensures the elimination of non-specific interactions. Additionally, using the same SPOT synthesis procedure, a library of type IV collagen fragments was obtained. […] The gray levels of the immunological reactions were determined using ImageJ Version 1.53n7 (https://imagej.nih.gov/ij/index.html, accessed on 17 October 2021) computer imaging software.

[4] = target: T1, Recombinant human EGFR protein (Active) (ab155639) (human, UniProt P00533 25-645, labelled with RED-tris-NTA 2nd Generation dye); test: MST; RED-tris-NTA-labelled EGFR 25 nM, ligand in a 16-step 1:1 dilution series in PBS-T, 30 min at room temperature; assay concentration of the ligand 1 mM; conditions: both partners purified
T1 construct: epidermal growth factor receptor (EGFR, ErbB-1), human, recombinant; also called EGF receptor; ErbB-1; source: bought: Abcam (ab155639), recombinant

[5] = target: T1, Recombinant human EGFR protein (Active) …; test: MST; RED-tris-NTA-labelled EGFR 25 nM, ligand in a 16-step 1:1 dilution series in PBS-T, 30 min at room temperature; assay concentration of the ligand 50 μM; conditions: both partners purified
[6] = target: T1, Recombinant human EGFR protein (Active) …; test: MST; RED-tris-NTA-labelled EGFR 25 nM, ligand in a 16-step 1:1 dilution series in PBS-T, 30 min at room temperature; assay concentration of the ligand 141 μM; conditions: both partners purified
[7] = target: T1, Recombinant human EGFR protein (Active) …; test: MST; RED-tris-NTA-labelled EGFR 25 nM, ligand in a 16-step 1:1 dilution series in PBS-T, 30 min at room temperature; assay concentration of the ligand 350 μM; conditions: both partners purified
[8] = target: T1, Recombinant human EGFR protein (Active) …; test: MST; RED-tris-NTA-labelled EGFR 25 nM, ligand in a 16-step 1:1 dilution series in PBS-T, 30 min at room temperature; assay concentration of the ligand 705 μM; conditions: both partners purified
[9] = target: T1, Recombinant human EGFR protein (Active) …; test: MST; RED-tris-NTA-labelled EGFR 25 nM, ligand in a 16-step 1:1 dilution series in PBS-T, 30 min at room temperature; assay concentration of the ligand 5 mM; conditions: both partners purified
[10] = target: T1, Recombinant human EGFR protein (Active) …; test: MST; RED-tris-NTA-labelled EGFR 25 nM, ligand in a dilution series in PBS-T; assay concentration of the ligand not stated for the values printed in running text; conditions: both partners purified
[11] = target: T1, Recombinant human EGFR protein (Active) …; test: MST; RED-tris-NTA-labelled EGFR 25 nM, ligand in a 16-step 1:1 dilution series in PBS-T, 30 min at room temperature; assay concentration of the ligand 10 μM; conditions: both partners purified
[12] = target: T1, Recombinant human EGFR protein (Active) …; test: MST; RED-tris-NTA-labelled EGFR 25 nM, ligand in a 16-step 1:1 dilution series in PBS-T, 30 min at room temperature; assay concentration of the ligand 2.5 mM; conditions: both partners purified
[13] = target: T1, Recombinant human EGFR protein (Active) …; test: MST; RED-tris-NTA-labelled EGFR 25 nM, ligand in a 16-step 1:1 dilution series in PBS-T, 30 min at room temperature; assay concentration of the ligand 500 μM; conditions: both partners purified
[14] = target: T1, Recombinant human EGFR protein (Active) …; test: MST; RED-tris-NTA-labelled EGFR 25 nM, ligand in a 16-step 1:1 dilution series in PBS-T, 30 min at room temperature; assay concentration of the ligand 10 mM; conditions: both partners purified

In the case of CSCC[C@H](NC(=O)[C@H](CS)NC(=O)[C@@H](NC(=O)CNC(=O)[C@H](CC(=O)O)NC(=O)[C@H](Cc1c[nH]cn1)NC(=O)[C@H](CC(C)C)NC(=O)[C@H](CS)NC(=O)[C@H](Cc1ccc(O)cc1)NC(=O)CNC(=O)[C@H](CC(=O)O)NC(=O)[C@@H](N)Cc1c[nH]cn1)C(C)C)C(=O)N[C@@H](Cc1ccc(O)cc1)C(=O)O [10–22] (H-HDGYCLHDGVCMY-OH; C-terminus assumed), the “dissociation constants (range over the assay concentrations)” value ([1]; MST, range over the tested fragment concentrations, labeled EGFR 25 nM) is reported as 0.07 to 416 µM, the “percentage of live cells (in words)” value ([2]; after 1 day) is reported as “slightly less survivability” and the live cells ([2]; after 7 days) is reported as 99.25%. It also gave a live cells ([2]; after one day) of 97.13%.

Work on CC[C@H](C)[C@H](N)C(=O)N[C@@H](CCC(=O)O)C(=O)N[C@@H](C)C(=O)N[C@@H](CC(C)C)C(=O)O [23–26] (H-IEAL-OH) yielded a Kd ([1]; MST, assay concentration 10 mM, labeled EGFR 25 nM, read-out: Kd) of 5090 µM.

In the case of CC(C)C[C@H](N)C(=O)N[C@@H](CC(=O)O)C(=O)N[C@@H](CCCCN)C(=O)N[C@@H](Cc1ccc(O)cc1)C(=O)N[C@@H](C)C(=O)N[C@@H](CS)C(=O)N[C@@H](CC(N)=O)C(=O)N[C@@H](CS)C(=O)N[C@H](C(=O)O)C(C)C [26–34] (H-LDKYACNCV-OH), the “number of cells (fibroblast proliferation, in words)” value ([2]; after 1 day of incubation) is reported as “more cells than in the medium with EGF”, the “percentage of live cells (in words)” value ([2]; after 1 day) is reported as “one of the highest percentages of live cells” and the “percentage of live cells (in words)” value ([2]; after 7 days) is reported as “one of the highest percentages of live cells”.

With “EGF: native EGF (ab9697), recombinant human EGF protein; 53-amino acid polypeptide” the “number of cells (fibroblast proliferation, in words)” value ([2]; after 7 days of incubation) was “induced cell growth”.

For H-YCLHDGV-OH [13–19], the “percentage of live cells (in words)” value ([2]; after 1 day) was “slightly less survivability”, the live cells ([2]; after 7 days) was 99.30% and the live cells ([2]; after one day) was 97.84%.

With H-^44YRDLKWWELR^53-matrix [C4] the “interaction with polyclonal anti-EGF antibodies (in words)” value ([3]; peptide on cellulose matrix) was “show interactions with polyclonal anti-EGF antibodies”, the “Intensity (ability to interact with polyclonal antibodies)” value ([3]; peptide on cellulose matrix, antibody 1:1000, 1 h room temperature) was “+ (strong (+), for which the staining intensity value was in the range of 120–90)” and the “Intensity (Staining Value)” value ([3]; scanned spot, 256 gray scale (ImageJ)) was 104.2.

Molecule HDGYCL [10–15] has a live cells ([2]; after 7 days) of 99.52% and a live cells ([2]; after one day) of 98.73%.

With IGERCQ [38–43] the Kd ([1]; MST, range over the tested fragment concentrations, labeled EGFR 25 nM, read-out: Kd (range over the assay concentrations)) was 0.108 to 0.709 µM.

For QYRDL [43–47], the Kd [1] was 4.93 to 125 µM and the “percentage of live cells (in words)” value ([2]; after 7 days) was “highest live percentage of cells for all tested peptides”.

With VVGYIGERCQYRDL [34–47] the Kd ([1]; MST, range over the tested fragment concentrations, labeled EGFR 25 nM, read-out: dissociation constants (range over the assay concentrations)) was 0.5 to 5.92 µM.

YIEALDK [22–28] was tested, and the “percentage of live cells (in words)” value ([2]; after 1 day) was “slightly less survivability”.

B1: EGF fragment 34–47 (VVGYIGERCQYRDL) (peptide)
peptide: VVGYIGERCQYRDL
notes: EGF, human, residues 34-47; numbers count on: the mature protein; source: synthetic peptide (SPPS, Fmoc; crude, without preparative HPLC)
In the case of B1, the Kd [4] is reported as 0.53 µM, the Kd [5] is reported as 5.92 µM and the Kd [6] is reported as 4.62 µM. The Kd [7] was 1.21 µM and the Kd [8] was 2.17 µM.

B2: EGF fragment 38–43 (IGERCQ) (peptide)
peptide: IGERCQ
notes: EGF, human, residues 38-43; numbers count on: the mature protein; source: synthetic peptide (SPPS, Fmoc; crude, without preparative HPLC)
Work on B2 yielded a Kd [9] of 0.157 µM, a Kd [10] of 0.1 to 1.8 µM and a Kd [11] of 0.709 µM. For the same molecule, the Kd [12] was 0.108 µM and the Kd [13] was 0.154 µM.

B3: EGF fragment 43–47 (QYRDL) (peptide)
peptide: QYRDL
notes: EGF, human, residues 43-47; numbers count on: the mature protein; source: synthetic peptide (SPPS, Fmoc; crude, without preparative HPLC)
Molecule B3 has a Kd [14] of 125 µM and a Kd [13] of 4.93 µM.
